# Results as given in patent US20250025427A1, “MIXED AMIDE ESTER CONTAINING LIPIDS FOR USE IN LIPID NANOPARTICLES” (Acuitas Therapeutics, Inc., priority 2023, published 2025).
# Test system: human IgG in mouse serum
# Test: Immunoglobulin G (IgG) mRNA in vivo evaluation using lipid nanoparticle compositions
# Design: species or system mice
# Conditions: LNP with the cationic lipid, 0.3 mg mRNA/kg, tail vein injection, μg IgG/mL serum 24 hours after administration
# Procedure: A lipid of Formula (I), DSPC, cholesterol and PEG-lipid of Formula (II) are solubilized in ethanol at a molar ratio of 50:10:38.5:1.5 or 47.5:10:40.7:1.8. Lipid nanoparticles (LNP) are prepared at a total lipid to mRNA weight ratio of approximately 10:1 to 40:1. Briefly, the mRNA is diluted to 0.2 mg/mL in 10 to 50 mM citrate buffer, pH 4 to 6 or 10 to 25 mM acetate buffer, pH 4 to 6. Syringe pumps are used to mix the ethanolic lipid solution with the mRNA aqueous solution at a ratio of about 1:5 to 1:3 (vol/vol) with total flow rates above 15 mL/min. The ethanol is then removed, and the external buffer replaced with PBS by dialysis. Finally, the lipid nanoparticles are filtered through a 0.2 µm pore sterile filter.
# Studies are performed in 6-8-week-old CD-1/ICR mice (Charles River or Inotiv) according to guidelines established by an institutional animal care committee (ACC) and the Canadian Council on Animal Care (CCAC). Varying doses of mRNA-lipid nanoparticle are systemically administered by tail vein injection and animals euthanized at a specific time point (e.g., 24 hours) post-administration. The whole blood is collected, and the serum subsequentially separated by centrifuging the tubes of the whole blood at 2000×g for 10 minutes at 4° C. and stored at −80° C. until use for analysis.
# For immunoglobulin G (IgG) ELISA (Life Diagnostics Human IgG ELISA kit), the serum samples are diluted at 100 to 20,000 folds with 1× diluent solution. 100 μL of diluted serum is dispensed into anti-human IgG coated 96-well plate in duplicate alongside human IgG standards and incubated in a plate shaker at 150 rpm at 25° C. for 45 minutes. The wells are washed 5 times with 1× wash solution using a plate washer (400 μL/well). 100 μL of HRP conjugate is added into each well and incubated in a plate shaker at the same condition above. The wells are washed 5 times again with 1× wash solution using a plate washer (400 μL/well). 100 μL of TMB reagent is added into each well and incubated in a plate shaker at the same condition above. The reaction is stopped by adding 100 μL of Stop solution to each well. The absorbance is read at 450 nm (A450) with a microplate reader. The amount of human IgG in mouse serum is determined by plotting A450 values for the assay standard against human IgG concentration.
# Representative compounds of the disclosure shown in Table 2 were formulated using the following molar ratio: 50% cationic lipid/10% distearoylphosphatidylcholine (DSPC)/38.5% Cholesterol/1.5% PEG lipid 2-[2-(ω-methoxy(polyethyleneglycohooo)ethoxy]-N,N-ditetradecylacetamide) or 47.5% cationic lipid/10% DSPC/40.7% Cholesterol/1.8% PEG lipid. Relative activity was determined by measuring the amount of human IgG […]. The activity was compared at a dose of 1.0 or 0.3 mg mRNA/kg and expressed as ng luciferase/g liver measured 4 hours after administration, as described in Example 1 or as μg IgG/mL serum measured 24 hours after administration, as described in Example 2. Compound numbers in Table 2 refer to the compound numbers of Table 1.
row,SMILES,Serum IgG (μg/mL) @ 0.3 mg/kg [µg/mL]
1,"CCCCCCCCC(CCCCCC)COC(=O)CCCCCCCNC(=O)CCCCCCCCCN(C)CCCCCCCCCC(=O)NCCCCCCCC(=O)OCC(CCCCCC)CCCCCCCC (stereo not drawn) [Compound I-2, Bis(2-Hexyldecyl) 8,8′-((10,10′-(Methylazanediyl)Bis(Decanoyl))Bis(Azanediyl))Dioctanoate]",70.7 ± 11.3
2,"CCCCCCCCC(CCCCCC)COC(=O)CCCCCCCC(=O)N(CCCCCC)CCCCCCN(C)CCCCCCN(CCCCCC)C(=O)CCCCCCCC(=O)OCC(CCCCCC)CCCCCCCC (stereo not drawn) [Compound I-5, Bis(2-Hexyldecyl) 9,9′-(((Methylazanediyl)Bis(Hexane-6,1-Diyl))Bis(Hexylazanediyl))Bis(9-Oxononanoate)]",57.5 ± 8.4
3,"CCCCCCCCC(CCCCCC)COC(=O)CCCCCNC(=O)CCCCCCCN(C)CCCCCCCC(=O)N(CCCCCC)CCCCCC(=O)OCC(CCCCCC)CCCCCCCC (stereo not drawn) [Compound I-11, 2-Hexyldecyl 6-(8-((8-(Hexyl(6-((2-Hexyldecyl)Oxy)-6-Oxohexyl)Amino)-8-Oxooctyl)(Methyl)Amino)Octanamido)Hexanoate]",35.6 ± 5.5
4,"CCCCCCCCC(CCCCCC)COC(=O)CCCCCN(CCCCCC)C(=O)CCCCCCCN(CCCCCCCC(=O)N(CCCCCC)CCCCCC(=O)OCC(CCCCCC)CCCCCCCC)[C@H]1CC[C@@H](O)CC1 (stereo partly drawn) [Compound I-12, Rel-Bis(2-Hexyldecyl) 6,6′-((8,8′-(((1R,4R)-4-Hydroxycyclohexyl)Azanediyl)Bis(Octanoyl))Bis(Hexylazanediyl))Dihexanoate]",29.6 ± 12.7
5,"CCCCCCCCC(CCCCCC)C(=O)OCCCCCCCCC(=O)N(CCCCCC)CCCCCCN(C)CCCCCCN(CCCCCC)C(=O)CCCCCCCCOC(=O)C(CCCCCC)CCCCCCCC (stereo not drawn) [Compound I-13, (((methylazanediyl)bis(hexane-6,1-diyl))bis(hexylazanediyl))bis(9-oxononane-9,1-diyl) bis(2-hexyldecanoate)]",11.3 ± 4.7
6,"CCCCCCCCC(CCCCCC)COC(=O)CCCCCCN(CCCCCC)C(=O)CCCCCCCN(C)CCCCCCCC(=O)N(CCCCCC)CCCCCCC(=O)OCC(CCCCCC)CCCCCCCC (stereo not drawn) [Compound I-14, Bis(2-Hexyldecyl) 7,7′-((8,8′-(Methylazanediyl)Bis(Octanoyl))Bis(Hexylazanediyl))Diheptanoate]",33.4 ± 7.7
7,"CCCCCCCCC(CCCCCC)COC(=O)CCCCN(CCCCCC)C(=O)CCCCCCCN(C)CCCCCCCC(=O)N(CCCCCC)CCCCC(=O)OCC(CCCCCC)CCCCCCCC (stereo not drawn) [Compound I-15, Bis(2-Hexyldecyl) 5,5′-((8,8′-(Methylazanediyl)Bis(Octanoyl))Bis(Hexylazanediyl))Dipentanoate]",48.2 ± 12.7
8,"CCCCCCCCC(CCCCCC)COC(=O)CCCCCCCN(CCCCCC)C(=O)CCCCCCN(C)CCCCCCC(=O)N(CCCCCC)CCCCCCCC(=O)OCC(CCCCCC)CCCCCCCC (stereo not drawn) [Compound I-16, Bis(2-Hexyldecyl) 8,8′-((7,7′-(Methylazanediyl)Bis(Heptanoyl))Bis(Hexylazanediyl))Dioctanoate]",37.2 ± 9.7
9,"CCCCCCCCC(CCCCCC)COC(=O)CCCCCCCCN(CCCCCC)C(=O)CCCCCN(C)CCCCCC(=O)N(CCCCCC)CCCCCCCCC(=O)OCC(CCCCCC)CCCCCCCC (stereo not drawn) [Compound I-17, Bis(2-Hexyldecyl) 9,9′-((6,6′-(Methylazanediyl)Bis(Hexanoyl))Bis(Hexylazanediyl))Dinonanoate]",16.0 ± 2.6
10,"CCCCCCCCC(CCCCCC)COC(=O)CCCCCCCN(CCCCCC)C(=O)CCCCN(C)CCCCC(=O)N(CCCCCC)CCCCCCCC(=O)OCC(CCCCCC)CCCCCCCC (stereo not drawn) [Compound I-18, Bis(2-Hexyldecyl) 8,8′-((5,5′-(Methylazanediyl)Bis(Pentanoyl))Bis(Hexylazanediyl))Dioctanoate]",8.9 ± 4.9
11,"CCCCCCCCC(CCCCCC)COC(=O)CCCCCN(CCCCCC)C(=O)CCCCN(C)CCCCC(=O)N(CCCCCC)CCCCCC(=O)OCC(CCCCCC)CCCCCCCC (stereo not drawn) [Compound I-19, Bis(2-Hexyldecyl) 6,6′-((5,5′-(Methylazanediyl)Bis(Pentanoyl))Bis(Hexylazanediyl))Dihexanoate]",12.3 ± 5.2
12,"CCCCCCCCC(CCCCCC)COC(=O)CCCCCCCCCN(CCCCCC)C(=O)CCCCCN(C)CCCCCC(=O)N(CCCCCC)CCCCCCCCCC(=O)OCC(CCCCCC)CCCCCCCC (stereo not drawn) [Compound I-22, Bis(2-Hexyldecyl) 10,10′-((6,6′-(Methylazanediyl)Bis(Hexanoyl))Bis(Hexylazanediyl))Bis(Decanoate)]",11.9 ± 5.9
13,"CCCCCCCCC(CCCCCC)COC(=O)CCCCCN(CCCCCC)C(=O)CCCCCCN(C)CCCCCCC(=O)N(CCCCCC)CCCCCC(=O)OCC(CCCCCC)CCCCCCCC (stereo not drawn) [Compound I-24, Bis(2-Hexyldecyl) 6,6′-((7,7′-(Methylazanediyl)Bis(Heptanoyl))Bis(Hexylazanediyl))Dihexanoate]",31.9 ± 6.4
14,"CCCCCCCCC(CCCCCC)COC(=O)CCCCCN(CCCCCC)C(=O)CCCCCCCN(C)CCCCCCCC(=O)N(CCCCCC)CCCCCC(=O)OCC(CCCCCC)CCCCCCCC (stereo not drawn) [Compound I-25, Bis(2-Hexyldecyl) 6,6′-((8,8′-(Methylazanediyl)Bis(Octanoyl))Bis(Hexylazanediyl))Dihexanoate]",55.3 ± 24.8
15,"CCCCCCCCC(CCCCCC)COC(=O)CCCCCN(CCCCCC)C(=O)CCCCCN(C)CCCCCC(=O)N(CCCCCC)CCCCCC(=O)OCC(CCCCCC)CCCCCCCC (stereo not drawn) [Compound I-27, Bis(2-Hexyldecyl) 6,6′-((6,6′-(Methylazanediyl)Bis(Hexanoyl))Bis(Hexylazanediyl))Dihexanoate]",15.6 ± 4.7
16,"CCCCCCCCC(CCCCCC)COC(=O)CCCCCN(C(=O)CCCCCCCN(C)CCCCCCCC(=O)N(CCCCCC(=O)OCC(CCCCCC)CCCCCCCC)C(C)C)C(C)C (stereo not drawn) [Compound I-28, Bis(2-Hexyldecyl) 6,6′-((8,8′-(Methylazanediyl)Bis(Octanoyl))Bis(Isopropylazanediyl))Dihexanoate]",13.2 ± 4.3
17,"CCCCCCCCC(CCCCCC)COC(=O)CCN(CCCCCC)C(=O)CCCCCCCN(C)CCCCCCCC(=O)N(CCCCCC)CCC(=O)OCC(CCCCCC)CCCCCCCC (stereo not drawn) [Compound I-32, Bis(2-Hexyldecyl) 3,3′-((8,8′-(Methylazanediyl)Bis(Octanoyl))Bis(Hexylazanediyl))Dipropionate]",70.8 ± 12.3
18,"CCCCCCC(CCCC)COC(=O)CCCCCN(CCCCCC)C(=O)CCCCCCCN(C)CCCCCCCC(=O)N(CCCCCC)CCCCCC(=O)OCC(CCCC)CCCCCC (stereo not drawn) [Compound I-33, Bis(2-Butyloctyl) 6,6′-((8,8′-(Methylazanediyl)Bis(Octanoyl))Bis(Hexylazanediyl))Dihexanoate]",75.8 ± 36.0
19,"CCCCCCCCC(CCCCCC)C(=O)OCCCCCCN(CCCCCC)C(=O)CCCCCCCN(CCCCCCCC(=O)N(CCCCCC)CCCCCCOC(=O)C(CCCCCC)CCCCCCCC)CCN(C)C (stereo not drawn) [Compound I-34, ((8,8′-((2-(Dimethylamino)Ethyl)Azanediyl)Bis(Octanoyl))Bis(Hexylazanediyl))Bis(Hexane-6,1-Diyl) Bis(2-Hexyldecanoate)]",5.0 ± 0.8
20,"CCCCCCCCC(CCCCCC)COC(=O)CCCCCN(CCCCCC)C(=O)CCCCCN(CCCCCC(=O)N(CCCCCC)CCCCCC(=O)OCC(CCCCCC)CCCCCCCC)CCCOC (stereo not drawn) [Compound I-37, Bis(2-Hexyldecyl) 6,6′-((6,6′-((3-Methoxypropyl)Azanediyl)Bis(Hexanoyl))Bis(Hexylazanediyl))Dihexanoate]",63.0 ± 22.9

# Same assay, conditions: LNP with the cationic lipid, 1.0 mg mRNA/kg, tail vein injection, μg IgG/mL serum 24 hours after administration
row,SMILES,Serum IgG (μg/mL) @ 1.0 mg/kg [µg/mL]
1,"CCCCCCCCC(CCCCCC)COC(=O)CCCCCCCNC(=O)CCCCCCCCCN(C)CCCCCCCCCC(=O)NCCCCCCCC(=O)OCC(CCCCCC)CCCCCCCC (stereo not drawn) [Compound I-2, Bis(2-Hexyldecyl) 8,8′-((10,10′-(Methylazanediyl)Bis(Decanoyl))Bis(Azanediyl))Dioctanoate]",369.6 ± 59.4
2,"CCCCCCCCC(CCCCCC)COC(=O)CCCCN(CCCCCC)C(=O)CCCCCCCN(C)CCCCCCCC(=O)N(CCCCCC)CCCCC(=O)OCC(CCCCCC)CCCCCCCC (stereo not drawn) [Compound I-15, Bis(2-Hexyldecyl) 5,5′-((8,8′-(Methylazanediyl)Bis(Octanoyl))Bis(Hexylazanediyl))Dipentanoate]",135.0 ± 37.2
3,"CCCCCCCCC(CCCCCC)COC(=O)CCCCCCCN(CCCCCC)C(=O)CCCCN(C)CCCCC(=O)N(CCCCCC)CCCCCCCC(=O)OCC(CCCCCC)CCCCCCCC (stereo not drawn) [Compound I-18, Bis(2-Hexyldecyl) 8,8′-((5,5′-(Methylazanediyl)Bis(Pentanoyl))Bis(Hexylazanediyl))Dioctanoate]",32.4 ± 4.6
4,"CCCCCCCCC(CCCCCC)COC(=O)CCCCCN(CCCCCC)C(=O)CCCCCCCN(C)CCCCCCCC(=O)N(CCCCCC)CCCCCC(=O)OCC(CCCCCC)CCCCCCCC (stereo not drawn) [Compound I-25, Bis(2-Hexyldecyl) 6,6′-((8,8′-(Methylazanediyl)Bis(Octanoyl))Bis(Hexylazanediyl))Dihexanoate]",192.4 ± 106.8
